Laboratory results published in ChEMBL document CHEMBL1671626, “In vitro profiling of ceftaroline against a collection of recent bacterial clinical isolates from across the United States” (2008).
Converted amounts (≈) assume the structure as drawn.

Key:
Assay type in all cases: functional
Enterococcus faecalis [1] = assay: Antibacterial activity against vancomycin-susceptible Enterococcus faecalis by CLSI M7-A7 broth microdilution method
Streptococcus viridans [2] = assay: Antibacterial activity against penicillin-susceptible Streptococcus viridans assessed as resistant isolates by CLSI M7-A7 broth microdilution method
Pasteurella multocida [3] = assay: Antibacterial activity against Pasteurella multocida assessed as susceptible isolates by CLSI M7-A7 broth microdilution method
Moraxella catarrhalis [4] = assay: Antibacterial activity against beta lactamase-positive Moraxella catarrhalis by CLSI M7-A7 broth microdilution method
Streptococcus pyogenes [5] = assay: Antibacterial activity against erythromycin-nonsusceptible Streptococcus pyogenes assessed as susceptible isolates by CLSI M7-A7 broth microdilution method
Streptococcus viridans [6] = assay: Antibacterial activity against penicillin-nonsusceptible Streptococcus viridans by CLSI M7-A7 broth microdilution method
Streptococcus agalactiae [7] = assay: Antibacterial activity against erythromycin-nonsusceptible Streptococcus agalactiae assessed as susceptible isolates by CLSI M7-A7 broth microdilution method
Streptococcus pyogenes [8] = assay: Antibacterial activity against erythromycin-nonsusceptible Streptococcus pyogenes assessed as resistant isolates by CLSI M7-A7 broth microdilution method
Enterococcus faecalis [9] = assay: Antibacterial activity against vancomycin-resistant Enterococcus faecalis by CLSI M7-A7 broth microdilution method
Streptococcus pyogenes [10] = assay: Antibacterial activity against erythromycin-susceptible Streptococcus pyogenes by CLSI M7-A7 broth microdilution method
Streptococcus pneumoniae [11] = assay: Antibacterial activity against penicillin-susceptible Streptococcus pneumoniae assessed as susceptible isolates by CLSI M7-A7 broth microdilution method
Staphylococcus aureus [12] = assay: Antibacterial activity against methicillin-susceptible Staphylococcus aureus by CLSI M7-A7 broth microdilution method
Staphylococcus aureus [13] = assay: Antibacterial activity against methicillin-resistant Staphylococcus aureus by CLSI M7-A7 broth microdilution method
Streptococcus viridans [14] = assay: Antibacterial activity against penicillin-susceptible Streptococcus viridans by CLSI M7-A7 broth microdilution method
Streptococcus pneumoniae [15] = assay: Antibacterial activity against penicillin-resistant Streptococcus pneumoniae assessed as susceptible isolates by CLSI M7-A7 broth microdilution method
Streptococcus pneumoniae [16] = assay: Antibacterial activity against penicillin-resistant Streptococcus pneumoniae by CLSI M7-A7 broth microdilution method
Enterococcus faecium [17] = assay: Antibacterial activity against vancomycin-resistant Enterococcus faecium assessed as resistant isolates by CLSI M7-A7 broth microdilution method
Streptococcus pneumoniae [18] = assay: Antibacterial activity against penicillin-resistant Streptococcus pneumoniae assessed as resistant isolates by CLSI M7-A7 broth microdilution method
Moraxella catarrhalis [19] = assay: Antibacterial activity against beta lactamase-positive Moraxella catarrhalis assessed as resistant isolates by CLSI M7-A7 broth microdilution method
Pasteurella multocida [20] = assay: Antibacterial activity against Pasteurella multocida assessed as resistant isolates by CLSI M7-A7 broth microdilution method
Staphylococcus aureus [21] = assay: Antibacterial activity against coagulase-negative and oxacillin-resistant Staphylococcus aureus assessed as resistant isolates by CLSI M7-A7 broth microdilution method
Moraxella catarrhalis [22] = assay: Antibacterial activity against beta lactamase-positive Moraxella catarrhalis assessed as susceptible isolates by CLSI M7-A7 broth microdilution method
Enterococcus faecalis [23] = assay: Antibacterial activity against vancomycin-resistant Enterococcus faecalis assessed as resistant isolates by CLSI M7-A7 broth microdilution method
Staphylococcus aureus [24] = assay: Antibacterial activity against coagulase-negative and oxacillin-susceptible Staphylococcus aureus assessed as resistant isolates by CLSI M7-A7 broth microdilution method
Streptococcus pneumoniae [25] = assay: Antibacterial activity against penicillin-susceptible Streptococcus pneumoniae assessed as resistant isolates by CLSI M7-A7 broth microdilution method
Streptococcus agalactiae [26] = assay: Antibacterial activity against erythromycin-susceptible Streptococcus agalactiae assessed as susceptible isolates by CLSI M7-A7 broth microdilution method
Staphylococcus aureus [27] = assay: Antibacterial activity against coagulase-negative and oxacillin-susceptible Staphylococcus aureus by CLSI M7-A7 broth microdilution method
Streptococcus agalactiae [28] = assay: Antibacterial activity against erythromycin-susceptible Streptococcus agalactiae by CLSI M7-A7 broth microdilution method
Enterococcus faecium [29] = assay: Antibacterial activity against vancomycin-resistant Enterococcus faecium by CLSI M7-A7 broth microdilution method
Staphylococcus aureus [30] = assay: Antibacterial activity against methicillin-susceptible Staphylococcus aureus assessed as resistant isolates by CLSI M7-A7 broth microdilution method
Staphylococcus aureus [31] = assay: Antibacterial activity against coagulase-negative and oxacillin-susceptible Staphylococcus aureus assessed as susceptible isolates by CLSI M7-A7 broth microdilution method
Enterococcus faecalis [32] = assay: Antibacterial activity against vancomycin-susceptible Enterococcus faecalis assessed as susceptible isolates by CLSI M7-A7 broth microdilution method
Staphylococcus aureus [33] = assay: Antibacterial activity against methicillin-resistant Staphylococcus aureus assessed as susceptible isolates by CLSI M7-A7 broth microdilution method
Streptococcus viridans [34] = assay: Antibacterial activity against penicillin-nonsusceptible Streptococcus viridans assessed as resistant isolates by CLSI M7-A7 broth microdilution method
Streptococcus agalactiae [35] = assay: Antibacterial activity against erythromycin-nonsusceptible Streptococcus agalactiae by CLSI M7-A7 broth microdilution method
Streptococcus pneumoniae [36] = assay: Antibacterial activity against penicillin-susceptible Streptococcus pneumoniae by CLSI M7-A7 broth microdilution method
Streptococcus viridans [37] = assay: Antibacterial activity against penicillin-nonsusceptible Streptococcus viridans assessed as susceptible isolates by CLSI M7-A7 broth microdilution method
Enterococcus faecalis [38] = assay: Antibacterial activity against vancomycin-resistant Enterococcus faecalis assessed as susceptible isolates by CLSI M7-A7 broth microdilution method
Staphylococcus aureus [39] = assay: Antibacterial activity against coagulase-negative and oxacillin-resistant Staphylococcus aureus assessed as susceptible isolates by CLSI M7-A7 broth microdilution method
Staphylococcus aureus [40] = assay: Antibacterial activity against coagulase-negative and oxacillin-resistant Staphylococcus aureus by CLSI M7-A7 broth microdilution method
Streptococcus viridans [41] = assay: Antibacterial activity against penicillin-susceptible Streptococcus viridans assessed as susceptible isolates by CLSI M7-A7 broth microdilution method
Enterococcus faecalis [42] = assay: Antibacterial activity against vancomycin-susceptible Enterococcus faecalis assessed as resistant isolates by CLSI M7-A7 broth microdilution method
Streptococcus pyogenes [43] = assay: Antibacterial activity against erythromycin-susceptible Streptococcus pyogenes assessed as susceptible isolates by CLSI M7-A7 broth microdilution method
Streptococcus agalactiae [44] = assay: Antibacterial activity against erythromycin-nonsusceptible Streptococcus agalactiae assessed as resistant isolates by CLSI M7-A7 broth microdilution method
Staphylococcus aureus [45] = assay: Antibacterial activity against methicillin-resistant Staphylococcus aureus assessed as resistant isolates by CLSI M7-A7 broth microdilution method
Enterococcus faecium [46] = assay: Antibacterial activity against vancomycin-resistant Enterococcus faecium assessed as susceptible isolates by CLSI M7-A7 broth microdilution method
Pasteurella multocida [47] = assay: Antibacterial activity against Pasteurella multocida by CLSI M7-A7 broth microdilution method
Staphylococcus aureus [48] = assay: Antibacterial activity against methicillin-susceptible Staphylococcus aureus assessed as susceptible isolates by CLSI M7-A7 broth microdilution method
Streptococcus pyogenes [49] = assay: Antibacterial activity against erythromycin-nonsusceptible Streptococcus pyogenes by CLSI M7-A7 broth microdilution method

## CC[C@H]1OC(=O)[C@H](C)[C@@H](O[C@H]2C[C@@](C)(OC)[C@@H](O)[C@H](C)O2)[C@H](C)[C@@H](O[C@@H]2O[C@H](C)C[C@H](N(C)C)[C@H]2O)[C@](C)(O)C[C@@H](C)C(=O)[C@H](C)[C@@H](O)[C@]1(C)O [ERYTHROMYCIN]
Enterococcus faecalis [1]
  MIC50: > 8 µg/mL
  MIC90: > 8 µg/mL
Streptococcus viridans [2]
  Activity: 40.2%
Pasteurella multocida [3]
  Activity: 4.5%
Moraxella catarrhalis [4]
  MIC: ≤ 0.12 µg/mL
  MIC50: ≤ 0.12 µg/mL
  MIC90: ≤ 0.12 µg/mL
Streptococcus pyogenes [5]
  Activity: 0%
Streptococcus viridans [6]
  MIC50: 2 µg/mL (≈ 2.73 µM)
  MIC90: > 16 µg/mL
Streptococcus agalactiae [7]
  Activity: 0%
Streptococcus pyogenes [8]
  Activity: 80%
Enterococcus faecalis [9]
  MIC: > 1 µg/mL
Streptococcus pyogenes [10]
  MIC50: 0.03 µg/mL (≈ 0.0409 µM)
  MIC90: 0.06 µg/mL (≈ 0.0818 µM)
Streptococcus pneumoniae [11]
  Activity: 89.1%
Staphylococcus aureus [12]
  MIC50: 0.5 µg/mL (≈ 0.681 µM)
  MIC90: > 8 µg/mL
Staphylococcus aureus [13]
  MIC50: > 8 µg/mL
Streptococcus viridans [14]
  MIC50: 0.06 µg/mL (≈ 0.0818 µM)
  MIC90: 4 µg/mL (≈ 5.45 µM)
Streptococcus pneumoniae [15]
  Activity: 28.4%
Streptococcus pneumoniae [16]
  MIC50: 8 µg/mL (≈ 10.9 µM)
  MIC90: > 16 µg/mL
Enterococcus faecium [17]
  Activity: 92.3%
Streptococcus pneumoniae [18]
  Activity: 71.6%
Moraxella catarrhalis [19]
  Activity: 0%
Pasteurella multocida [20]
  Activity: 77.3%
Staphylococcus aureus [21]
  Activity: 81.3%
Moraxella catarrhalis [22]
  Activity: 100%
Enterococcus faecalis [23]
  Activity: 96%
Staphylococcus aureus [24]
  Activity: 49.3%
Streptococcus pneumoniae [25]
  Activity: 9.9%
Streptococcus agalactiae [26]
  Activity: 100%
Staphylococcus aureus [27]
  MIC50: 1 µg/mL (≈ 1.36 µM)
  MIC90: > 8 µg/mL
Streptococcus agalactiae [28]
  MIC50: 0.03 µg/mL (≈ 0.0409 µM)
  MIC90: 0.06 µg/mL (≈ 0.0818 µM)
Enterococcus faecium [29]
  MIC50: > 8 µg/mL
  MIC90: > 8 µg/mL
Staphylococcus aureus [30]
  Activity: 32.5%
Staphylococcus aureus [31]
  Activity: 49.8%
Enterococcus faecalis [32]
  Activity: 10.2%
Staphylococcus aureus [33]
  Activity: 4.5%
Streptococcus viridans [34]
  Activity: 71.4%
Streptococcus agalactiae [35]
  MIC50: 16 µg/mL (≈ 21.8 µM)
  MIC90: > 16 µg/mL
Streptococcus pneumoniae [36]
  MIC50: 0.03 µg/mL (≈ 0.0409 µM)
  MIC90: 0.5 µg/mL (≈ 0.681 µM)
Streptococcus viridans [37]
  Activity: 21.4%
Enterococcus faecalis [38]
  Activity: 0%
Staphylococcus aureus [39]
  Activity: 18.4%
Staphylococcus aureus [40]
  MIC50: > 8 µg/mL
Streptococcus viridans [41]
  Activity: 58.6%
Enterococcus faecalis [42]
  Activity: 59.9%
Streptococcus pyogenes [43]
  Activity: 100%
Streptococcus agalactiae [44]
  Activity: 92.9%
Staphylococcus aureus [45]
  Activity: 94.4%
Enterococcus faecium [46]
  Activity: 0%
Pasteurella multocida [47]
  MIC50: 2 µg/mL (≈ 2.73 µM)
  MIC90: 4 µg/mL (≈ 5.45 µM)
Staphylococcus aureus [48]
  Activity: 65.2%
Streptococcus pyogenes [49]
  MIC50: 8 µg/mL (≈ 10.9 µM)
  MIC90: > 16 µg/mL
